Columns and labels:
[1] = target: T1, Alpha-1B adrenergic receptor (Rattus norvegicus, UniProt P15823); test: DRUGMATRIX: Alpha-1B adrenergic receptor radioligand binding (ligand: prazosin); format: cell membranes, Wistar, Liver, Membrane; settings: Not Active = under 50% inhibition at 10 µM
T1 sequence (P15823 whole entry): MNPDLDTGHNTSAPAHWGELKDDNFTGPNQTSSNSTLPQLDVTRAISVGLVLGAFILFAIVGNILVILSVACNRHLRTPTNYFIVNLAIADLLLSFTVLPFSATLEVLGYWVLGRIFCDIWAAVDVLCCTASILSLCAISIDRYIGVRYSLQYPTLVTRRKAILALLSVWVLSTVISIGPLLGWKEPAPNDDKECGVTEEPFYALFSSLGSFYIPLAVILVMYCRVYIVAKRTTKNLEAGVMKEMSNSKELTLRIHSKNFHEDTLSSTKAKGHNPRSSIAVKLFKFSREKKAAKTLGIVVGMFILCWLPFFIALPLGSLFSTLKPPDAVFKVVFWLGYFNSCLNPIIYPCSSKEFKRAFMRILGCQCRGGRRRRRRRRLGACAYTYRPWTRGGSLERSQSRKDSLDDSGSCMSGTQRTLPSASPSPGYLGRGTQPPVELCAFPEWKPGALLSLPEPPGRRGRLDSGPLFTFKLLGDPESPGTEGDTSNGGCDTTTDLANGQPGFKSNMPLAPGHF

[2] = target: T2, Polyunsaturated fatty acid lipoxygenase ALOX15 (Oryctolagus cuniculus, UniProt P12530); test: biochemical; format: tissue-based, Reticulocytes; settings: reticulocytes;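 note: inhibition of 15-lipoxygenase enzyme activity measured with linoleic acid as the substrate; in other assays of this panel Not Active means under 50% inhibition at 10 µM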
T2 sequence (P12530 whole entry): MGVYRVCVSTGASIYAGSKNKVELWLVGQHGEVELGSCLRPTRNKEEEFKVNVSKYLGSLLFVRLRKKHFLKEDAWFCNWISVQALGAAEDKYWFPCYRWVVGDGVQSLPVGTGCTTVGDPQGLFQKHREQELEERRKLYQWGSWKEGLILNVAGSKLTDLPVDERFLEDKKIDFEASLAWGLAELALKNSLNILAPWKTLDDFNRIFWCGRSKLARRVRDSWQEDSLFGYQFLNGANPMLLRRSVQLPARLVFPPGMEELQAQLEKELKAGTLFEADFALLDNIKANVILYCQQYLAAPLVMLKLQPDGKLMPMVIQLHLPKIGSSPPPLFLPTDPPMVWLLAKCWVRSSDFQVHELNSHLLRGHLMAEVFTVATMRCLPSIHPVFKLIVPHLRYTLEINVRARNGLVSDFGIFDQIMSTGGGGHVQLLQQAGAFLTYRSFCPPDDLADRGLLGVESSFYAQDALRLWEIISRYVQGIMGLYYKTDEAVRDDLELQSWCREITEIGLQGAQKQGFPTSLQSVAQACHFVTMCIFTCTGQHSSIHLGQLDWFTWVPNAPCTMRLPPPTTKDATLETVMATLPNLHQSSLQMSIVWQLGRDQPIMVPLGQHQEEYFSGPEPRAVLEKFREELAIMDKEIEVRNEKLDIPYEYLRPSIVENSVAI

[3] = target: T3, Nitric oxide synthase, inducible (Mus musculus, UniProt P29477); set-up: species or system Escherichia coli;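 note: inhibition of iNOS enzyme activity measured with L-arginine as substrate; in other assays of this panel Not Active means under 50% inhibition at 10 µM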
T3 sequence (P29477 whole entry): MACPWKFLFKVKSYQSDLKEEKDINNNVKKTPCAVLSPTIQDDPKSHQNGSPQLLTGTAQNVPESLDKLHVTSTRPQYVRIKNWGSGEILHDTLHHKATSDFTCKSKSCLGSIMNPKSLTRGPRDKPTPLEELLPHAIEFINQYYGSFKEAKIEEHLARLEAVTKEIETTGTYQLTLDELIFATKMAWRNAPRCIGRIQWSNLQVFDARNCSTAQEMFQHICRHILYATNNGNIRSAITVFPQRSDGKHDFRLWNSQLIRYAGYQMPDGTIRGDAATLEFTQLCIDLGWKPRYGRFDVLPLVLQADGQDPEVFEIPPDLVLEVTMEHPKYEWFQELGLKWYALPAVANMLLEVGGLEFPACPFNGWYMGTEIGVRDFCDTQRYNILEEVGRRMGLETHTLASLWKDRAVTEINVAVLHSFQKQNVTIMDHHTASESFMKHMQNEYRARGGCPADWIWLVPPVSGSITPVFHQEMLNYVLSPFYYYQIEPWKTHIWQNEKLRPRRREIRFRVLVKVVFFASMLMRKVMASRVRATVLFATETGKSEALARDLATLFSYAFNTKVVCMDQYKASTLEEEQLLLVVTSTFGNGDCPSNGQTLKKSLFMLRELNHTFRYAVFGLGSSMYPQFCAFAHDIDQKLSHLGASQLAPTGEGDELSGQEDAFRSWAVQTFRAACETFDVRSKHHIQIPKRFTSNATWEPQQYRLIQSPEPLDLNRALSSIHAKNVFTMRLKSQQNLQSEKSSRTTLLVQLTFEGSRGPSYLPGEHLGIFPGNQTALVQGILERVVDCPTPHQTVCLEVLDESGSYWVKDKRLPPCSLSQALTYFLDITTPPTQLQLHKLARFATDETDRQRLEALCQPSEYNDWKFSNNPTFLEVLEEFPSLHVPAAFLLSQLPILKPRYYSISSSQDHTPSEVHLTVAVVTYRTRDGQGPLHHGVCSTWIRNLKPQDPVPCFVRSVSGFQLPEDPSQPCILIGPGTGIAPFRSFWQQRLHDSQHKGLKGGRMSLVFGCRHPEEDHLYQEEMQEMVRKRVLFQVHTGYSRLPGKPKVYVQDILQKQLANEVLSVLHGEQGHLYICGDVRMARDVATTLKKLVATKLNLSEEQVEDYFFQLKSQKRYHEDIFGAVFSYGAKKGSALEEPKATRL

Mu-type opioid receptor = Mu-type opioid receptor (Homo sapiens, UniProt P35372); test: DRUGMATRIX: Opiate mu (OP3, MOP) radioligand binding (ligand: [3H] Diprenorphine); format: cell membranes, CHO-K1, Membrane; settings: cho-k1; Not Active = under 50% inhibition at 10 µM
Interstitial collagenase = target: T4, Interstitial collagenase (Homo sapiens, UniProt P03956); format: tissue-based, Rheumatoid synovial fibroblasts;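 note: MMP-1 enzyme inhibition assay using a peptide substrate; in other assays of this panel Not Active means under 50% inhibition at 10 µM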
T4 sequence (P03956 whole entry): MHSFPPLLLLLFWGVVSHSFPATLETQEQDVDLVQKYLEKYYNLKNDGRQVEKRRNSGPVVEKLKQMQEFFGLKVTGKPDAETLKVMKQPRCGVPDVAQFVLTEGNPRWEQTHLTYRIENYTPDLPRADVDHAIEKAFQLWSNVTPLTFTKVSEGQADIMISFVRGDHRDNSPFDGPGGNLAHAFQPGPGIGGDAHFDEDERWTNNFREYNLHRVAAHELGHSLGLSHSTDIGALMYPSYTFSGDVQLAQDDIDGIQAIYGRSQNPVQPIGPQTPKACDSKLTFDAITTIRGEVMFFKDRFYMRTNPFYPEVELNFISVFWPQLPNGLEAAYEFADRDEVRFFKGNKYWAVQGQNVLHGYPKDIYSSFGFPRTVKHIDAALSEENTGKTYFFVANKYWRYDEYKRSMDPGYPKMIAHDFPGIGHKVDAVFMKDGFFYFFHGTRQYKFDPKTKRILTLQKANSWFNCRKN

Measured: IC50

Sequence of Mu-type opioid receptor (P35372 whole entry): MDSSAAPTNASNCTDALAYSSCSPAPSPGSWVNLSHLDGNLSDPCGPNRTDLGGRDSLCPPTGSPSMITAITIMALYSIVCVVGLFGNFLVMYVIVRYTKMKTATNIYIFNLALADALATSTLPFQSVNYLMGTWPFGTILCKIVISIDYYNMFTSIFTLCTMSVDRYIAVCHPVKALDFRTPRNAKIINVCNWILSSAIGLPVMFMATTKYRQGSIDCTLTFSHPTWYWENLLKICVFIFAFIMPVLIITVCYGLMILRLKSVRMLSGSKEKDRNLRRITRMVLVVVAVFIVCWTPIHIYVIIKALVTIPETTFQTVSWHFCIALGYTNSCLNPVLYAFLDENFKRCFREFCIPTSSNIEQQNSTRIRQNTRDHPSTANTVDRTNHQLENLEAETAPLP

COC(=O)[C@H](c1ccccc1Cl)N1CCc2sccc2C1 [CLOPIDOGREL]
Not Active: [1] | [2] | [3] | Mu-type opioid receptor | Interstitial collagenase

C[C@]12CCC(=O)C=C1CC[C@@H]1[C@@H]2C(=O)C[C@@]2(C)[C@H]1CC[C@]2(O)C(=O)CO [CORTISONE]
Not Active: [1] | [2] | [3] | Mu-type opioid receptor | Interstitial collagenase

CC1=Nc2ccc(Cl)cc2S(=O)(=O)N1 [DIAZOXIDE]
Not Active: [1] | [2] | [3] | Mu-type opioid receptor | Interstitial collagenase

CC(=O)OCC(=O)[C@@]1(OC(C)=O)[C@@H](C)C[C@H]2[C@@H]3C[C@H](F)C4=CC(=O)C=C[C@]4(C)[C@@]3(F)[C@@H](O)C[C@@]21C [DIFLORASONE DIACETATE]
Not Active: [1] | [2] | [3] | Mu-type opioid receptor | Interstitial collagenase

COc1ccc([C@@H]2Sc3ccccc3N(CCN(C)C)C(=O)[C@@H]2OC(C)=O)cc1 [DILTIAZEM]
Not Active: [1] | [2] | [3] | Mu-type opioid receptor | Interstitial collagenase

CCc1ccc(C(=O)C(C)CN2CCCCC2)cc1 (stereo not given) [EPERISONE]
Not Active: [1] | [2] | [3] | Mu-type opioid receptor | Interstitial collagenase

C=C1CC[C@H](O)C/C1=C/C=C1\CCC[C@]2(C)[C@@H]([C@H](C)/C=C/[C@H](C)C(C)C)CC[C@@H]12 [ERGOCALCIFEROL]
Not Active: [1] | [2] | [3] | Mu-type opioid receptor | Interstitial collagenase

CCc1cccc2c3c([nH]c12)C(CC)(CC(=O)O)OCC3 (stereo not given) [ETODOLAC]
Not Active: [1] | [2] | [3] | Mu-type opioid receptor | Interstitial collagenase

Cc1c(-c2ccccc2)oc2c(C(=O)OCCN3CCCCC3)cccc2c1=O [FLAVOXATE]
Not Active: [1] | [2] | [3] | Mu-type opioid receptor | Interstitial collagenase

Nc1nc(=O)[nH]cc1F [FLUCYTOSINE]
Not Active: [1] | [2] | [3] | Mu-type opioid receptor | Interstitial collagenase

O=C1OC2(c3ccc(O)cc3Oc3cc(O)ccc32)c2ccccc21 [FLUORESCEIN]
Not Active: [1] | [2] | [3] | Mu-type opioid receptor | Interstitial collagenase

CC(=O)[C@@]1(O)CC[C@H]2[C@@H]3C[C@H](C)C4=CC(=O)C=C[C@]4(C)[C@@]3(F)[C@@H](O)C[C@@]21C [FLUOROMETHOLONE]
Not Active: [1] | [2] | [3] | Mu-type opioid receptor | Interstitial collagenase

O=c1[nH]cc(F)c(=O)[nH]1 [FLUOROURACIL]
Not Active: [1] | [2] | [3] | Mu-type opioid receptor | Interstitial collagenase

CC(C)n1c(/C=C/C(O)CC(O)CC(=O)O)c(-c2ccc(F)cc2)c2ccccc21 (stereo not given) [FLUVASTATIN]
Not Active: [1] | [2] | [3] | Mu-type opioid receptor | Interstitial collagenase

O=C1OCCN1/N=C/c1ccc([N+](=O)[O-])o1 [FURAZOLIDONE]
Not Active: [1] | [2] | [3] | Mu-type opioid receptor | Interstitial collagenase

NCC1(CC(=O)O)CCCCC1 [GABAPENTIN]
Not Active: [1] | [2] | [3] | Mu-type opioid receptor | Interstitial collagenase

CC[N+](CC)(CC)CCOc1cccc(OCC[N+](CC)(CC)CC)c1OCC[N+](CC)(CC)CC.[I-].[I-].[I-] [GALLAMINE TRIETHIODIDE]
Not Active: [1] | [2] | [3] | Mu-type opioid receptor | Interstitial collagenase

Nc1nc2c(ncn2COC(CO)CO)c(=O)[nH]1 [GANCICLOVIR]
Not Active: [1] | [2] | [3] | Mu-type opioid receptor | Interstitial collagenase

COc1c(N2CCNC(C)C2)c(F)cc2c(=O)c(C(=O)O)cn(C3CC3)c12 (stereo not given) [GATIFLOXACIN]
Not Active: [1] | [2] | [3] | Mu-type opioid receptor | Interstitial collagenase

NCC(=O)O [GLYCINE]
Not Active: [1] | [2] | [3] | Mu-type opioid receptor | Interstitial collagenase

From ChEMBL document CHEMBL1909046, “DrugMatrix in vitro pharmacology data”
